This passage reports Activity results from ChEMBL document CHEMBL1149020, “Sesterterpenes from a common marine sponge, Hyrtios erecta” (1986).

This assay is filed under the species Mus musculus. In words: Antiinflammatory activity against PMA-induced ear inflammation in mouse assessed as decrease in ear weight at 50 ug/ear. Type of assay: functional. Also on record: scale not given: the % may be the effect or the level left.

Molecules are shown by their SMILES.

In the case of `CC(=O)O[C@@H]1C[C@H]2[C@@](C)(CC[C@H]3C(C)(C)CCC[C@]23C)[C@@H]2CC=C(C=O)C[C@]21C` [HYRTIAL], the Activity is given as 43%.
